Results from patent US20240173440A1, “HIGH PURITY COPPER RADIOPHARMACEUTICAL COMPOSITIONS AND DIAGNOSTIC AND THERAPEUTIC USES THEREOF” (Nuclidium AG, priority 2022, published 2024).
Each block holds one compound with its values, some of them ahead of it.

Columns and labels:
[1] = Remaining PET activity in the mouse body 4h p.i.; assay type: in vivo; settings: mice
Procedure: PET/CT Imaging: Mice bearing FAP-positive and FAP-negative xenografts were injected intravenously with ^61Cu-labeled radioligands of the present disclosure or ^61Cu-NODAGA-FAPI-46 (100 μL/[…]/6-12 MBq). […] The mice were euthanized by CO2 at 4 hours p.i., and static PET scans were acquired for 30 min.
Remaining PET activity in the mouse body 4h p.i. prior to the 4h scan was determined (Table 36).

HT-1080.hFAP cells = test: In vitro cellular uptake (cell surface and internalized fractions) in HT-1080.hFAP cells; assay type: cell-based, human
Procedure: (§1) The cellular uptake was studied in vitro using intact cells seeded in 6-well plates overnight. On the day of the experiment, the cells were washed and incubated with each of the exemplified [^61Cu]Cu-radiotracer at different time points, either alone or in the presence of a blocking agent to distinguish between specific and non-specific uptake. At each investigated time point, the medium containing the unbound (free) radiotracer was removed, followed by two washing steps with ice-cold phosphate-buffered saline. The cells were then treated 2×5 min with ice-cold glycine solution (0.05 M, pH 2.8) to detach the cell surface-bound radiotracer (acid released). Afterwards, the cells containing the internalized radiotracer were detached with 1 M NaOH at 37° C. and collected for measurement. The amount of specific cell surface-bound and internalized radiotracer is expressed as percentage of the total applied activity, after subtracting the non-specific values.
as §1, with “^61Cu-labeled conjugate” for “of the exemplified [^61Cu]Cu-radiotracer”
The cells were then preconditioned in 360 μL of assay medium (MEM medium without supplements) at 37° C. for 60 min. 40 μL of a 2 nM solution of ^61Cu-labeled radioligand was added and the cells were incubated at 37° C. The cellular uptake was interrupted at different time points (15 min, 1 hour and 4 hours), by washing twice with ice-cold PBS. Cell surface-bound radioligand was obtained by washing cells twice with ice-cold glycine buffer (pH 2.8), followed by a collection of the internalized fraction with 1 M NaOH. The activity in each fraction was measured in a γ-counter (Cobra II).

hFAP = hFAP (Homo sapiens (Human), UniProt Q12884); test: Saturation binding on isolated HEK-293.hFAP cell membranes; parameters: Bmax: unit not given here; settings: 37° C.
Procedure: The cells were homogenized using Ultra-Turrax, and the homogenized suspension was centrifuged at 500×g for 10 min at 4° C. The supernatant was collected in centrifuge tubes (Beckman Coulter Inc., Brea, CA, USA). This procedure was then repeated 5 times. The collected supernatant was centrifuged in an ultra-centrifuge (Beckman) at 4° C. for 55 min at 49,000×g. Then, the pellet was re-suspended in 10 mM ice-cold HEPES buffer (pH 7.5), aliquoted, and stored at −80° C. The protein concentration of those membrane suspensions was determined by the Bradford method, BSA as the standard.
Each assay tube contained 170 μL of binding buffer (20 mM HEPES, pH 7.4, containing 4 mM μgCl2, 0.2% BSA, 20 μg/L bacitracin, 20 μg/L PMSF and 200,000 KIU/L aprotinin). The incubation was initiated by adding 30 μL of radioligand solution at 10 times the final concentration and 100 μL of cell membrane suspension to yield 10 μg of protein per well. For the determination of the non-specific binding, 140 μL of the above binding buffer was added along with 30 μL of FAPI-46 to obtain (0.1 mM). Bound fractions were plotted versus the corresponding radioligand concentration at equilibrium. The dissociation constant (KD) and maximal binding capacity (Bmax) values were calculated using GraphPad Software Inc., Prism 7, San Diego, CA, USA (Table 33 and FIG. 21).

[2] = system: HT-1080.hFAP and HT-1080.wt xenografts; test: Quantitative biodistribution in HT-1080.hFAP and HT-1080.wt xenografted mice; assay type: in vivo; settings: for Biodistribution HT-1080.wt: FAP-negative tumor; for Biodistribution HT-1080.hFAP: FAP-positive tumor
Procedure: The tumors were allowed to grow to an average volume of 100-200 mm3.
Biodistribution Studies: The xenografted mice were randomized (n=5 per group) and injected intravenously via the tail vein with the ^61Cu-labeled radioligands (100 μL, […], 0.8-1MBq). Mice were euthanized 1h and 4h pi. by CO2 asphyxiation. Organs of interest and blood were collected, rinsed of excess blood, blotted dry, weighed, and counted in a […]. The samples were counted against a suitably diluted aliquot of the injected solution as the standard and the results are expressed as the percentage of the injected activity per gram of tissue (0% I.A./g)+SD.

[3] = 1 h p.i., HT-1080.hFAP and HT-1080.wt xenografts
[4] = 4 h p.i., HT-1080.hFAP and HT-1080.wt xenografts
[5] = HT-1080.hFAP and HT-1080.wt xenografts

hFAP, sequence (Q12884 whole entry): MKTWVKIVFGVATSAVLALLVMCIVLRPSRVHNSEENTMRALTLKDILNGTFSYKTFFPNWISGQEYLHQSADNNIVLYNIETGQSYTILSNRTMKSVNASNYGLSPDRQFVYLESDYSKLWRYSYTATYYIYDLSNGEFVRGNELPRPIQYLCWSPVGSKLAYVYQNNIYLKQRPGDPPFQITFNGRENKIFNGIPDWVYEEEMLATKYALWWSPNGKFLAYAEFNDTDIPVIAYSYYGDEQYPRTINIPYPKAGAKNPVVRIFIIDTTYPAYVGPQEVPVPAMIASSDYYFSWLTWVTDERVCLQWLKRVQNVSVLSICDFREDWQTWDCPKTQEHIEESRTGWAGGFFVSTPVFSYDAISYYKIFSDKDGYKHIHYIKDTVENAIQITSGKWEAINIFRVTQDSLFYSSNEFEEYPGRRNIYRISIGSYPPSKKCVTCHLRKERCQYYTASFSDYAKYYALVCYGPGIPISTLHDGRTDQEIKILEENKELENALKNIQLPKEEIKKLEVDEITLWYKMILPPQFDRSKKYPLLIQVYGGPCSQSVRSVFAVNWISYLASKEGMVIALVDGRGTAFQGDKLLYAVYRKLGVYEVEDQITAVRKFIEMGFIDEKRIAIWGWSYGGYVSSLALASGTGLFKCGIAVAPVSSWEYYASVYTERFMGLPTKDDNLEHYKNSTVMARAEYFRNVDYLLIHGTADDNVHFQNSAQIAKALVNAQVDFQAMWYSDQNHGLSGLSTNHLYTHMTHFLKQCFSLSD

retention in the body (remaining PET activity) [1]: lowest value
Bmax (hFAP): 9.1-9.8
Biodistribution Heart ([2]; 1 hour p.i.): 0.6 ± 0.0 % I.A./g
Biodistribution Intestine ([2]; 1 hour p.i.): 0.5 ± 0.2 % I.A./g
Biodistribution Liver ([2]; 1 hour p.i.): 0.6 ± 0.1 % I.A./g
Biodistribution Lung ([2]; 1 hour p.i.): 0.9 ± 0.1 % I.A./g
Biodistribution Muscle ([2]; 1 hour p.i.): 0.8 ± 0.2 % I.A./g
Biodistribution Spleen ([2]; 1 hour p.i.): 0.4 ± 0.0 % I.A./g
Biodistribution Stomach ([2]; 1 hour p.i.): 0.5 ± 0.0 % I.A./g
Biodistribution Adrenal [2, 3]: 1.1 ± 0.2 % IA/g
Biodistribution Blood [2, 3]: 1.4 ± 0.1 % IA/g
Biodistribution Femur [2, 3]: 3.2 ± 0.8 % IA/g
Biodistribution HT1080.hFAP (FAP-positive tumor) [2, 3]: 7.4 ± 1.6 % IA/g
Biodistribution HT1080.wt (FAP-negative tumor) [2, 3]: 1.7 ± 0.2 % IA/g
Biodistribution Heart [2, 3]: 0.6 ± 0.0 % IA/g
Biodistribution Intestine [2, 3]: 0.5 ± 0.2 % IA/g
Biodistribution Kidney [2, 3]: 1.8 ± 0.2 % IA/g
Biodistribution Liver [2, 3]: 0.6 ± 0.1 % IA/g
Biodistribution Lung [2, 3]: 0.9 ± 0.1 % IA/g
Biodistribution Muscle [2, 3]: 0.8 ± 0.2 % IA/g
Biodistribution Pancreas [2, 3]: 1.1 ± 0.1 % IA/g
Biodistribution Spleen [2, 3]: 0.4 ± 0.0 % IA/g
Biodistribution Stomach [2, 3]: 0.5 ± 0.0 % IA/g
Biodistribution Adrenal ([2]; 4 hours p.i.): 0.5 ± 0.1 % I.A./g
Biodistribution Blood ([2]; 4 hours p.i.): 0.4 ± 0.1 % I.A./g
Biodistribution Heart ([2]; 4 hours p.i.): 0.2 ± 0.0 % I.A./g
Biodistribution Intestine ([2]; 4 hours p.i.): 0.3 ± 0.1 % I.A./g
Biodistribution Liver ([2]; 4 hours p.i.): 0.4 ± 0.0 % I.A./g
Biodistribution Lung ([2]; 4 hours p.i.): 0.3 ± 0.0 % I.A./g
Biodistribution Muscle ([2]; 4 hours p.i.): 0.4 ± 0.1 % I.A./g
Biodistribution Pancreas ([2]; 4 hours p.i.): 0.4 ± 0.1 % I.A./g
Biodistribution Spleen ([2]; 4 hours p.i.): 0.2 ± 0.0 % I.A./g
Biodistribution Stomach ([2]; 4 hours p.i.): 0.2 ± 0.0 % I.A./g
Biodistribution Adrenal [2, 4]: 0.5 ± 0.1 % IA/g
Biodistribution Blood [2, 4]: 0.4 ± 0.1 % IA/g
Biodistribution Femur [2, 4]: 1.2 ± 0.1 % IA/g
Biodistribution HT1080.hFAP (FAP-positive tumor) [2, 4]: 3.0 ± 0.8 % IA/g
Biodistribution HT1080.wt (FAP-negative tumor) [2, 4]: 0.6 ± 0.0 % IA/g
Biodistribution Heart [2, 4]: 0.2 ± 0.0 % IA/g
Biodistribution Intestine [2, 4]: 0.3 ± 0.1 % IA/g
Biodistribution Kidney [2, 4]: 1.1 ± 0.1 % IA/g
Biodistribution Liver [2, 4]: 0.4 ± 0.0 % IA/g
Biodistribution Lung [2, 4]: 0.3 ± 0.0 % IA/g
Biodistribution Muscle [2, 4]: 0.4 ± 0.1 % IA/g
Biodistribution Pancreas [2, 4]: 0.4 ± 0.1 % IA/g
Biodistribution Spleen [2, 4]: 0.2 ± 0.0 % IA/g
Biodistribution Stomach [2, 4]: 0.2 ± 0.0 % IA/g
Biodistribution HT-1080.wt ([2]; 1 hour p.i.): 1.7 ± 0.2 % I.A./g
Biodistribution HT-1080.wt ([2]; 4 hours p.i.): 0.6 ± 0.0 % I.A./g
Biodistribution HT-1080.hFAP ([2]; 1 hour p.i.): 7.4 ± 1.6 % I.A./g
Biodistribution HT-1080.hFAP ([2]; 4 hours p.i.): 3.0 ± 0.8 % I.A./g
Structure (SMILES): CN(C(=O)CCC(=O)N1CCN(C(=O)CC[C@H](C(=O)O)N2CCN3CCN(CC2)CC(=O)[O][61Cu][O]C(=O)C3)CC1)c1ccc2nccc(C(=O)NCC(=O)N3CC(F)(F)C[C@H]3C#N)c2c1 [[^61Cu]Cu-NODAGA-F4]
Cell surface fraction (HT-1080.hFAP cells; 15 min, HT-1080.hFAP cells, specific uptake (minus HT-1080.wt)): 1.0 ± 0.7 % of the applied activity
Cell surface fraction (HT-1080.hFAP cells; 240 min, HT-1080.hFAP cells, specific uptake (minus HT-1080.wt)): 0.9 ± 0.6 % of the applied activity
Cell surface fraction (HT-1080.hFAP cells; Time Point 15 min, 0.2 nM): 1.0 ± 0.7 percentage of the total applied activity
Cell surface fraction (HT-1080.hFAP cells; Time Point 240 min, 0.2 nM): 0.9 ± 0.6 percentage of the total applied activity
accumulation in tumor and target-positive tissues [2, 5]: high accumulation in FAP-positive (HT-1080.hFAP) tumor and murine-FAP-positive tissues

retention in the body (remaining PET activity) [1]: highest retention in the body
Bmax (hFAP): 8.6-9.2
Biodistribution Spleen ([2]; 1 hour p.i.): 0.8 ± 0.1 % I.A./g
Biodistribution Adrenal [2, 3]: 2.3 ± 0.5 % IA/g
Biodistribution Blood [2, 3]: 2.3 ± 0.1 % IA/g
Biodistribution Femur [2, 3]: 10.9 ± 1.1 % IA/g
Biodistribution HT1080.hFAP (FAP-positive tumor) [2, 3]: 12.6 ± 1.5 % IA/g
Biodistribution HT1080.wt (FAP-negative tumor) [2, 3]: 4.5 ± 0.6 % IA/g
Biodistribution Heart [2, 3]: 1.2 ± 0.3 % IA/g
Biodistribution Intestine [2, 3]: 1.7 ± 0.4 % IA/g
Biodistribution Kidney [2, 3]: 2.4 ± 0.3 % IA/g
Biodistribution Liver [2, 3]: 1.5 ± 0.0 % IA/g
Biodistribution Lung [2, 3]: 1.8 ± 0.0 % IA/g
Biodistribution Muscle [2, 3]: 2.6 ± 0.7 % IA/g
Biodistribution Pancreas [2, 3]: 2.5 ± 0.3 % IA/g
Biodistribution Spleen [2, 3]: 0.8 ± 0.1 % IA/g
Biodistribution Stomach [2, 3]: 1.1 ± 0.2 % IA/g
Biodistribution Heart ([2]; 4 hours p.i.): 0.7 ± 0.1 % I.A./g
Biodistribution Liver ([2]; 4 hours p.i.): 1.0 ± 0.2 % I.A./g
Biodistribution Lung ([2]; 4 hours p.i.): 0.8 ± 0.2 % I.A./g
Biodistribution Spleen ([2]; 4 hours p.i.): 0.5 ± 0.1 % I.A./g
Biodistribution Stomach ([2]; 4 hours p.i.): 0.7 ± 0.1 % I.A./g
Biodistribution Adrenal [2, 4]: 1.4 ± 0.2 % IA/g
Biodistribution Blood [2, 4]: 1.2 ± 0.3 % IA/g
Biodistribution Femur [2, 4]: 4.2 ± 1.5 % IA/g
Biodistribution HT1080.hFAP (FAP-positive tumor) [2, 4]: 7.1 ± 3.0 % IA/g
Biodistribution HT1080.wt (FAP-negative tumor) [2, 4]: 2.1 ± 0.5 % IA/g
Biodistribution Heart [2, 4]: 0.7 ± 0.1 % IA/g
Biodistribution Intestine [2, 4]: 1.1 ± 0.4 % IA/g
Biodistribution Kidney [2, 4]: 1.5 ± 0.5 % IA/g
Biodistribution Liver [2, 4]: 1.0 ± 0.2 % IA/g
Biodistribution Lung [2, 4]: 0.8 ± 0.2 % IA/g
Biodistribution Muscle [2, 4]: 1.3 ± 0.1 % IA/g
Biodistribution Pancreas [2, 4]: 1.4 ± 0.2 % IA/g
Biodistribution Spleen [2, 4]: 0.5 ± 0.1 % IA/g
Biodistribution Stomach [2, 4]: 0.7 ± 0.1 % IA/g
Biodistribution HT-1080.wt ([2]; 1 hour p.i.): 4.5 ± 0.6 % I.A./g
Biodistribution HT-1080.wt ([2]; 4 hours p.i.): 2.1 ± 0.5 % I.A./g
Biodistribution HT-1080.hFAP ([2]; 1 hour p.i.): 12.6 ± 1.5 % I.A./g
Biodistribution HT-1080.hFAP ([2]; 4 hours p.i.): 7.1 ± 3.0 % I.A./g
Structure (SMILES): N#C[C@@H]1CC(F)(F)CN1C(=O)CNC(=O)c1ccnc2ccc(NC(=O)CCC(=O)NCCNC(=O)CC[C@H](C(=O)O)N3CCN4CCN(CC3)CC(=O)[O][61Cu][O]C(=O)C4)cc12 [[^61Cu]Cu-NODAGA-F1]
accumulation in tumor and target-positive tissues [2, 5]: high accumulation in FAP-positive (HT-1080.hFAP) tumor and murine-FAP-positive tissues
